According to ChEMBL document CHEMBL4619816, “GSK973 Is an Inhibitor of the Second Bromodomains (BD2s) of the Bromodomain and Extra-Terminal (BET) Family” (ACS Med Chem Lett, 2020):
pIC50: −log10 of the molar value. Values after ≈ are worked out from the molar mass of the structure shown.

Tests used:
Blood = assay: Inhibition of LPS-induced MCP1 production in human whole blood preincubated for 30 mins followed by LPS addition measured after 24 hrs by immuno assay; format: functional, tissue-based
[1] = molecular target: Bromodomain-containing protein 4 (Homo sapiens, UniProt O60885, Y390A); assay: Displacement of Alexa Fluor 647 labelled ligand from His6-tagged BRD4 BD1 (1 to 477 residues)/BD2 Y390A mutant (unknown origin) after 30 mins by TR-FRET assay
[2] = test system: Bromodomain-containing protein 4 (Homo sapiens), O60885 [UNDEFINED MUTATION]; assay: Selectivity index, ratio of IC50 for displacement of Alexa Fluor 647 labelled ligand from His6-tagged BRD4 BD1 (1 to 477 residues)/BD2 Y390A mutant (unknown origin) to IC50 for displacement of Alexa Fluor 647 labelled ligand from His6-tagged BRD4 BD2 (1 to 477 residues)/BD1 Y97A mutant (unknown origin)
[3] = Chromatographic hydrophobicity index, log D of the compound in pH 7.4 ammonium acetate buffer/acetonitrile gradient by HPLC analysis; format: physicochemical
[4] = Permeability of compound by artificial membrane assay; format: ADME; settings: PAMPA; read-out: permeability
[5] = Solubility of compound by CLND method; format: physicochemical
[6] = Clearance in Wistar Han rat hepatocytes assessed as per gram tissue at 0.5 uM by LC-MS/MS analysis; format: ADME, cell-based, Hepatocyte
[7] = Clearance in Wistar Han rat at 1 mg/kg administered as iv infusion for 1 hr and measured up to 7 hrs by LC-MS/MS analysis; format: ADME, organism-based; settings: in vivo
[8] = Renal clearance in Wistar Han rat at 1 mg/kg administered as iv infusion for 1 hr and measured up to 7 hrs by LC-MS/MS analysis; format: ADME, organism-based; settings: in vivo
[9] = Volume of distribution at steady state in Wistar Han rat at 1 mg/kg administered as iv infusion for 1 hr and measured up to 7 hrs by LC-MS/MS analysis; format: ADME, organism-based; settings: in vivo, read-out: Vdss
[10] = Half life in Wistar Han rat at 1 mg/kg administered as iv infusion for 1 hr and measured up to 7 hrs by LC-MS/MS analysis; format: ADME, organism-based; settings: in vivo
[11] = Oral bioavailability in Wistar Han rat at 3 mg/kg administered via gavage and measured up to 7 hrs by LC-MS/MS analysis; format: ADME, organism-based; settings: in vivo
[12] = Clearance in human pooled hepatocytes assessed as per gram tissue at 0.5 uM measured up to 2 hrs by LC-MS/MS analysis; format: ADME, cell-based, Hepatocyte
[13] = Clearance in Beagle dog hepatocytes assessed as per gram tissue at 0.5 uM measured up to 2 hrs by LC-MS/MS analysis; format: ADME, cell-based, Canis lupus familiaris, Hepatocyte
[14] = molecular target: Bromodomain-containing protein 4 (Homo sapiens, UniProt O60885, Y97A); assay: Displacement of Alexa Fluor 647 labelled ligand from His6-tagged BRD4 BD2 (1 to 477 residues)/BD1 Y97A mutant (unknown origin) after 30 mins by TR-FRET assay
serum albumin = serum albumin (Homo sapiens, UniProt P02768); assay: Binding affinity to human serum albumin; format: ADME; settings: read-out: PB (converted)
Sequence of serum albumin (P02768 whole entry): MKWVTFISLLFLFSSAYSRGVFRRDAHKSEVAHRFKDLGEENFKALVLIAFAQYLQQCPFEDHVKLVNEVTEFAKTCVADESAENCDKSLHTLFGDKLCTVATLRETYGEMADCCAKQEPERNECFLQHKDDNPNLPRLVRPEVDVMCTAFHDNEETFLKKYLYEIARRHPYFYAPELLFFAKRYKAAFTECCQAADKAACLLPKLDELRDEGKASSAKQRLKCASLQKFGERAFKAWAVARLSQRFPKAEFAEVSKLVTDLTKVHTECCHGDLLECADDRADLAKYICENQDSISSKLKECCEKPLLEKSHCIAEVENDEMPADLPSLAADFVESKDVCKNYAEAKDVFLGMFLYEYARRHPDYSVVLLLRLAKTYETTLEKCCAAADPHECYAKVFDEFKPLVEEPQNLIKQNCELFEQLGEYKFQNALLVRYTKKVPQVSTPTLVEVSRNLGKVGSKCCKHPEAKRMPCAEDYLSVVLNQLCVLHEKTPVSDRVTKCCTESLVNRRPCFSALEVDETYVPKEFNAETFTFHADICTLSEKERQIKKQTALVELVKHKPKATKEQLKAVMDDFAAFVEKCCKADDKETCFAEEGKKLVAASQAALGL

[15] = Clearance in human pooled hepatocytes assessed as per gram tissue at 0.5 uM by LC-MS/MS analysis; format: ADME, cell-based, Hepatocyte
[16] = Clearance in Wistar Han rat hepatocytes assessed as per gram tissue at 0.5 uM measured up to 1 hr by LC-MS/MS analysis; format: ADME, cell-based, Hepatocyte
PBMC = assay: Inhibition of LPS-induced MCP1 production in human PBMC; format: functional, cell-based
[17] = Clearance in Beagle dog hepatocytes assessed as per gram tissue at 0.5 uM measured up to 1 hr by LC-MS/MS analysis; format: ADME, cell-based, Canis lupus familiaris, Hepatocyte

| Structure (SMILES) | pIC50 (Blood) | pIC50 [1] | Ratio IC50 [2] | CHI [3] | pIC50 [14] | other results |
| --- | --- | --- | --- | --- | --- | --- |
| CNC(=O)c1cc(C(=O)N[C@@H]2C[C@H]2CO)cc2c1O[C@H](CF)[C@H]2c1ccccc1 | 6.70 | 4.80 | 800 | 3 | – | Papp [4]: 7.3 ×10⁻⁶ cm/s; solubility kinetic [5]: 114 µg/mL (≈ 286 µM); CLH [6]: 1.65 mL/min/g; clearance [7]: 98 mL/min/kg; CL renal [8]: 4 mL/min/kg; Vd [9]: 1.7 L/kg; half-life [10]: 30 min; bioavailability [11]: 15%; CLH [12]: < 0.45 mL/min/g; CLH [13]: < 0.65 mL/min/g |
| CNC(=O)c1cccc2c1O[C@@H](c1ccccc1)[C@@H]2C | – | – | 5 | – | 5.00 | – |
| CNC(=O)c1cc(C(=O)NC2CC2)cc2c1O[C@H](CO)[C@H]2c1ccccc1 | 6.10 | – | – | 2.53 | – | Papp [4]: 26.6 ×10⁻⁶ cm/s; solubility kinetic [5]: > 177 µg/mL; fraction unbound (serum albumin): 0.21; CLH [6]: < 0.8 mL/min/g; CLH [15]: < 0.45 mL/min/g; clearance [7]: 74 mL/min/kg; CL renal [8]: 23 mL/min/kg; Vd [9]: 1.4 L/kg; half-life [10]: 24 min; bioavailability [11]: 2% |
| CNC(=O)c1cc(C(=O)NC)c(=O)n(Cc2ccccc2)c1 | – | – | – | 2.38 | – | – |
| CNC(=O)c1cc(C(=O)NCCOC)cn(Cc2ccccc2)c1=O | – | – | – | 2.74 | – | – |
| CNC(=O)c1cc(C(=O)NCCO)cc2c1O[C@H](C)[C@H]2c1ccccc1 | – | < 4.30 | > 320 | 3.12 | 6.80 | – |
| CNC(=O)c1cc(C(=O)NC)c2c(c1)[C@H](c1ccccc1)[C@@H](CF)O2 | 6.70 | – | – | 3.34 | – | CLH [15]: < 0.45 mL/min/g; CLH [16]: 3.02 mL/min/g |
| CNC(=O)c1cc(C(=O)NCCO)cn(Cc2ccccc2)c1=O | – | – | – | 1.9 | – | – |
| CNC(=O)c1cc(C(=O)NC2CC2)cc2c1O[C@H](C)[C@H]2c1ccccc1 | 6.70 | – | 1600 | 4.24 | – | pIC50 (PBMC): 8.20; Papp [4]: 44 ×10⁻⁶ cm/s; solubility kinetic [5]: 137 µg/mL (≈ 391 µM); fraction unbound (serum albumin): 0.11; CLH [6]: 2.48 mL/min/g; CLH [15]: 1.42 mL/min/g; clearance [7]: 90 mL/min/kg; CL renal [8]: 0.2 mL/min/kg; Vd [9]: 2.3 L/kg; half-life [10]: 24 min |
| CNC(=O)c1cc(C(N)=O)cc2c1O[C@H](CF)[C@H]2c1ccccc1 | – | – | – | 2.89 | – | – |
| CNC(=O)c1cc(C(=O)NC2CC2)cc2c1O[C@H](CF)[C@H]2c1ccccc1 | 6.70 | – | – | 3.94 | – | CLH [15]: < 0.45 mL/min/g; CLH [16]: 3.2 mL/min/g; CLH [17]: < 1.26 mL/min/g |
| CNC(=O)c1cccc2c1O[C@@H](C)[C@H]2c1ccccc1 | – | – | 10 | – | 5.60 | – |
| CCNC(=O)c1cc(C(=O)NC)c2c(c1)[C@H](c1ccccc1)[C@@H](C)O2 | – | 4.40 | 1000 | 4.11 | 7.40 | – |
| CNC(=O)c1cc(C(=O)NC2CC2)cn(Cc2ccccc2)c1=O [GSK620] | – | – | – | 3.07 | – | – |
| CCNC(=O)c1cc(C(=O)NC)c(=O)n(Cc2ccccc2)c1 | – | – | – | 2.99 | – | – |
| CNC(=O)c1cc(C(N)=O)cn(Cc2ccccc2)c1=O | – | – | – | 2.03 | – | – |
| CNC(=O)c1cc(C(=O)N[C@H]2C[C@@H]2C)cc2c1O[C@H](CF)[C@H]2c1ccccc1 | 7.00 | – | – | 4.53 | – | – |
| CNC(=O)c1cc(C(=O)NCCC[C@H]2OC[C@H](N)CO2)cc2c1O[C@H](CF)[C@H]2c1ccccc1 | 6.90 | – | – | 2.94 | – | Papp [4]: 4.5 ×10⁻⁶ cm/s; CLH [6]: 1.39 mL/min/g; clearance [7]: 73 mL/min/kg; CL renal [8]: 10 mL/min/kg; Vd [9]: 2.1 L/kg; half-life [10]: 36 min; bioavailability [11]: 3% |
| CNC(=O)c1cc(C(=O)NCC[C@@H]2CNCCO2)cc2c1O[C@H](CF)[C@H]2c1ccccc1 | 6.80 | 4.30 | 1200 | 2.18 | 7.40 | CLH [6]: 1.28 mL/min/g; CLH [12]: < 0.45 mL/min/g; CLH [13]: < 0.65 mL/min/g |
| CNC(=O)c1cc(C(=O)NC)c2c(c1)[C@H](c1ccccc1)[C@@H](C)O2 | – | 4.90 | 400 | 3.55 | 7.50 | – |
| CNC(=O)c1cc(C(=O)NCCOC)cc2c1O[C@H](C)[C@H]2c1ccccc1 | – | 4.40 | 200 | 3.81 | 6.70 | – |
| CNC(=O)c1cccc2c1O[C@H](C)[C@H]2c1ccccc1 (single isomer, unassigned) | – | – | 25 | – | 6.10 | – |
| CNC(=O)c1cc(C(=O)N[C@H]2C[C@H](O)C2)cc2c1O[C@H](CF)[C@H]2c1ccccc1 | 6.50 | 4.50 | 400 | 2.92 | 7.10 | CLH [6]: 1.84 mL/min/g; CLH [15]: < 0.45 mL/min/g |
| CNC(=O)c1cc(C(N)=O)cc2c1O[C@H](C)[C@H]2c1ccccc1 | – | 4.80 | 160 | 3.28 | 7.00 | – |
| CNC(=O)c1cc(C(=O)NC2CCOC2)cc2c1O[C@H](CF)[C@H]2c1ccccc1 (stereo partly specified) | – | < 4.30 | > 300 | 3.51 | 6.80 | – |
